In ChEMBL document CHEMBL4190176 (Medchemcomm, 2016):
pIC50: −log10 of the molar value.

Target: T1, Bifunctional epoxide hydrolase 2 (Homo sapiens, UniProt P34913)
T1 sequence (P34913 whole entry): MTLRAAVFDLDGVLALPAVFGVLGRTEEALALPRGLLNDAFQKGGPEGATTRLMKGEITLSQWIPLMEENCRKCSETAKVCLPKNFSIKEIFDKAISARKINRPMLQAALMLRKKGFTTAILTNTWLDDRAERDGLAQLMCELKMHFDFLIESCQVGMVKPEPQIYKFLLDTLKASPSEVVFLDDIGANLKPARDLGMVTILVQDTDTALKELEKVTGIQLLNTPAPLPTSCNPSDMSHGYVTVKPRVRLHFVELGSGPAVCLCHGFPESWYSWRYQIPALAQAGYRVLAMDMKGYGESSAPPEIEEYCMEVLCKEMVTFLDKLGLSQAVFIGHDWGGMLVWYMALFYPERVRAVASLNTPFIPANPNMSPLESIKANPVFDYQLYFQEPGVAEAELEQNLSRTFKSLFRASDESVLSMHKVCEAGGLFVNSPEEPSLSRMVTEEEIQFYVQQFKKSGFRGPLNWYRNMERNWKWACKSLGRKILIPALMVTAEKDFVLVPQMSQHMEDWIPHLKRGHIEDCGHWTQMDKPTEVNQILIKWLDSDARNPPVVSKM
Experiment: Inhibition of recombinant human soluble epoxide hydrolase using PHOME as substrate incubated for 5 mins followed by substrate addition by fluorescence assay

Structure (SMILES)	pIC50
CCOC(=O)C1=C(c2ccccc2)NC(=O)NC1c1ccc(NC(=O)c2ccc(F)cc2)cc1 (stereo not drawn)	9.02
CCOC(=O)C1=C(c2ccccc2)NC(=O)NC1c1ccc(NC(=O)c2ccc(C)cc2)cc1 (stereo not drawn)	9.32
CCOC(=O)C1=C(c2ccccc2)NC(=O)NC1c1ccc(NC(=O)CCC(=O)O)cc1 (stereo not drawn)	8.65
CCOC(=O)C1=C(c2ccccc2)NC(=O)NC1c1ccc(NC(=O)c2ccc([N+](=O)[O-])cc2)cc1 (stereo not drawn)	8.70
CCOC(=O)C1=C(c2ccccc2)NC(=O)NC1c1ccc(NC(=O)c2ccc(Cl)cc2)cc1 (stereo not drawn)	9.32
CCOC(=O)C1=C(c2ccccc2)NC(=O)NC1c1ccc(NC(=O)c2ccccc2C(=O)O)cc1 (stereo not drawn)	8.72
CCOC(=O)C1=C(c2ccccc2)NC(=O)NC1c1ccc(NC(=O)c2ccc(OC)cc2)cc1 (stereo not drawn)	8.74
CCOC(=O)C1=C(c2ccccc2)NC(=O)NC1c1ccc(NC(=O)c2ccccc2)cc1 (stereo not drawn)	8.91
